Experimental data published in paper PMC11784839, “Monoaminergic neurotransmitters are bimodal effectors of tau aggregation” (Science Advances, 2025).

Molecular target: tau (Homo sapiens, UniProt P10636)
Experiment: MCE Phenols Library screening, tau biosensor cell seeding assay (AvZ)
Assay type: cell-based
Details: for Z repl 1 / Z Repl 2: Z score; for Z repl 1 / raw data 1: replicate 1; for Z Repl 2 / raw data 2: replicate 2; for AvZ (average z score of seeding, SDs from the mean level of seeding): 10 μM phenol in cell cultures, AD brain homogenate preincubated 16 hours, two biological replicates, positive = catalyzes seeding, negative = inhibits
[1] = average Z score of two replicates, Phenols Library screen
[2] = average Z score of the two replicates, MCE Phenols Library screen
[3] = average puncta of the two replicates
[4] = average Z score of the two replicates, tau seeding
[5] = average Z score of the two replicates, tau biosensor seeding, MCE Phenols Library screen

Sequence of tau (P10636 623-695 limits assumed): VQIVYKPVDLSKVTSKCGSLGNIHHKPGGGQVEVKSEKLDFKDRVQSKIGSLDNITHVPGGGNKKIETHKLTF

SMILES: C[C@@H]1O[C@@H](OC[C@H]2O[C@@H](OCCc3ccc(O)c(O)c3)[C@H](O)[C@@H](O)[C@@H]2OC(=O)/C=C/c2ccc(O)c(O)c2)[C@H](O)[C@H](O)[C@H]1O [Forsythiaside A]
- Z repl 1: 0.23
- Z Repl 2: -0.492
- av Z [1]: -0.131
- av puncta (average of raw data 1 and 2): 18310.1
- raw data 1 (puncta): 29105.9
- raw data 2 (puncta): 7514.37

SMILES: C[C@@H]1O[C@@H](OC[C@H]2O[C@@H](OCCc3ccc(O)c(O)c3)[C@H](O)[C@@H](OC(=O)/C=C/c3ccc(O)c(O)c3)[C@@H]2O)[C@H](O)[C@H](O)[C@H]1O [Forsythoside I]
- Z repl 1: -1.102
- Z Repl 2: -0.666
- av Z [2]: -0.884
- av puncta (average of raw data 1 and 2): 9388.55
- raw data 1 (puncta): 13120.4
- raw data 2 (puncta): 5656.67

SMILES: COc1cc2ccc(=O)oc2c(O)c1O [Fraxetin]
- Z repl 1: -0.275
- Z Repl 2: -0.769
- av Z [2]: -0.522
- av puncta [3]: 13803.1
- raw data 1 (puncta): 23050.6
- raw data 2 (puncta): 4555.69

SMILES: COc1cc2ccc(=O)oc2c(O)c1OC [Fraxidin]
- Z repl 1: 0.561
- Z Repl 2: -0.256
- av Z [4]: 0.152
- av puncta (average of raw data 1 and 2): 21554.2
- raw data 1 (puncta): 33079.8
- raw data 2 (puncta): 10028.5

SMILES: COc1cc2ccc(=O)oc2c(O[C@@H]2O[C@H](CO)[C@@H](O)[C@H](O)[C@H]2O)c1O [Fraxin]
- Z repl 1: 0.183
- Z Repl 2: -0.668
- av Z [2]: -0.243
- av puncta [3]: 17088
- raw data 1 (raw puncta): 28547.2
- raw data 2 (raw puncta): 5628.78

SMILES: O=c1c(O)c(-c2ccccc2)oc2cc(O)cc(O)c12 [Galangin]
- Z repl 1: 0.212
- Z Repl 2: -0.203
- av Z [1]: 0.004
- av puncta (average of raw data 1 and 2): 19744.8
- raw data 1 (puncta): 28893.6
- raw data 2 (puncta): 10595.9

SMILES: O.O=C(O)c1cc(O)c(O)c(O)c1 [Gallic acid (hydrate)]
- AvZ (average z score of seeding, SDs from the mean level of seeding): -1.246
- Z repl 1: -1.396
- Z Repl 2: -1.097
- av puncta (average of raw data 1 and 2): 5320.33
- raw data 1 (puncta): 9587.18
- raw data 2 (puncta): 1053.49

SMILES: O=C(O)c1cc(O)c(O)c(O)c1 [Gallic acid]
- AvZ (average z score of seeding, SDs from the mean level of seeding): -1.627
- Z repl 1: -2.072
- Z Repl 2: -1.182
- av puncta (average of raw data 1 and 2): 803.018
- raw data 1 (puncta): 1468.86
- raw data 2 (puncta): 137.18

SMILES: CC(C)=CCC/C(C)=C/Cc1c(O)c(CC=C(C)C)c2c(c1O)C(=O)C1=C[C@@H]3C[C@H]4C(C)(C)O[C@@](C/C=C(/C)C(=O)O)(C3=O)[C@@]14O2 [Gambogenic acid]
- av Z [2]: -1.587

SMILES: CC(C)=CCC[C@]1(C)C=Cc2c(O)c3c(c(CC=C(C)C)c2O1)O[C@]12C(=C[C@@H]4C[C@H]1C(C)(C)O[C@@]2(C/C=C(/C)C(=O)O)C4=O)C3=O [Gambogic acid]
- AvZ (average z score of seeding, SDs from the mean level of seeding): -1.57
- Z repl 1: -2.192
- Z Repl 2: -0.952
- av Z [2]: -1.572
- av puncta (average of raw data 1 and 2): 1315.22
- raw data 1 (puncta): 33.834
- raw data 2 (puncta): 2596.6

SMILES: CC(C)=CCc1c(O)cc2oc3cc(O)c(O)c(CC=C(C)C)c3c(=O)c2c1O [Gamma-Mangostin]
- Z repl 1: -0.442
- Z Repl 2: -0.111
- av Z [2]: -0.277
- av puncta [3]: 16310.3
- raw data 1 (raw puncta): 21043.4
- raw data 2 (raw puncta): 11577.2

SMILES: COc1ccc(-c2cc(=O)c3c(O)c(OC)c(OC)c(OC)c3o2)cc1 [Gardenin B]
- Z repl 1: 0.816
- Z Repl 2: 0.967
- av Z [5]: 0.892
- av puncta (average of raw data 1 and 2): 29624.1
- raw data 1 (puncta): 36150
- raw data 2 (puncta): 23098.1

SMILES: OCc1ccc(O[C@@H]2O[C@H](CO)[C@@H](O)[C@H](O)[C@H]2O)cc1 [Gastrodin]
- Z repl 1: -1.05
- Z Repl 2: -0.621
- av Z [2]: -0.836
- av puncta (average of raw data 1 and 2): 9937.48
- raw data 1 (puncta): 13738.4
- raw data 2 (puncta): 6136.55

SMILES: O=c1c(-c2ccc(O)cc2)coc2cc(O)cc(O)c12 [Genistein]
- Z repl 1: 0.361
- Z Repl 2: 0.231
- av Z [4]: 0.296
- av puncta (average of raw data 1 and 2): 22958.3
- raw data 1 (puncta): 30681.6
- raw data 2 (puncta): 15235.1

SMILES: O=c1c(-c2ccc(O)cc2)coc2cc(O[C@@H]3O[C@H](CO)[C@@H](O)[C@H](O)[C@H]3O)cc(O)c12 [Genistin]
- Z repl 1: 0.673
- Z Repl 2: 0.138
- av Z [4]: 0.406
- av puncta (average of raw data 1 and 2): 24334.9
- raw data 1 (puncta): 34427
- raw data 2 (puncta): 14242.8

SMILES: COc1cc(O)c2c(=O)cc(-c3ccc(O)cc3)oc2c1 [Genkwanin]
- Z repl 1: 1.231
- Z Repl 2: 0.655
- av Z [5]: 0.943
- av puncta (average of raw data 1 and 2): 30446.8
- raw data 1 (puncta): 41129.3
- raw data 2 (puncta): 19764.4

SMILES: O=C1O[C@H]2[C@@H]3OC(=O)c4cc(O)c(O)c(O)c4-c4c(cc(O)c(O)c4O)C(=O)OC[C@H]2O[C@@H](OC(=O)c2cc(O)c(O)c(O)c2)[C@@H]3OC(=O)c2cc(O)c(O)c3c2[C@@H]2C1=CC(=O)[C@](O)(O3)C2(O)O [Geraniin]
- Z repl 1: -2.121
- Z Repl 2: -1.184
- av Z [2]: -1.653
- av puncta (average of raw data 1 and 2): 501.022
- raw data 1 (puncta): 880.948
- raw data 2 (puncta): 121.096

SMILES: CCCCCC/C=C\CCCCCCCCCc1cccc(O)c1C(=O)O [Ginkgolic acid C17:1]
- AvZ (average z score of seeding, SDs from the mean level of seeding): 0.292
- Z repl 1: 0.386
- Z Repl 2: 0.198
- av puncta (average of raw data 1 and 2): 22931
- raw data 1 (puncta): 30979.1
- raw data 2 (puncta): 14882.8

SMILES: CC1(C)C=Cc2c(ccc3c2OC[C@@H](c2ccc(O)cc2O)C3)O1 [Glabridin]
- Z repl 1: 0.624
- Z Repl 2: 0.805
- av Z [4]: 0.715
- av puncta (average of raw data 1 and 2): 27603.9
- raw data 1 (puncta): 33843.5
- raw data 2 (puncta): 21364.3

SMILES: COc1cc2c(=O)c(-c3ccc(O)cc3)coc2cc1O [Glycitein]
- Z repl 1: 0.123
- Z Repl 2: -0.524
- av Z [2]: -0.2
- av puncta [3]: 17498.7
- raw data 1 (raw puncta): 27830.8
- raw data 2 (raw puncta): 7166.64

SMILES: COc1c(CC=C(C)C)c(O)cc2oc(=O)c(-c3ccc(O)cc3O)cc12 [Glycycoumarin]
- Z repl 1: 0.796
- Z Repl 2: 0.821
- av Z [5]: 0.808
- av puncta (average of raw data 1 and 2): 28718.5
- raw data 1 (puncta): 35905.3
- raw data 2 (puncta): 21531.6

SMILES: Oc1cc(O)cc(/C=C/c2c(O)cccc2O)c1 [Gnetol]
- Z repl 1: -2.02
- Z Repl 2: -1.135
- av Z [2]: -1.577
- av puncta (average of raw data 1 and 2): 1372.64
- raw data 1 (puncta): 2096.46
- raw data 2 (puncta): 648.824

SMILES: O=c1c(O)c(-c2ccc(O)c(O)c2)oc2c(O[C@@H]3O[C@H](CO)[C@@H](O)[C@H](O)[C@H]3O)c(O)cc(O)c12 [Gossypin]
- Z repl 1: -0.561
- Z Repl 2: -0.884
- av Z [2]: -0.722
- av puncta [3]: 11471.3
- raw data 1 (puncta): 19618.8
- raw data 2 (puncta): 3323.85

SMILES: Cc1cc2c(C(C)C)c(O)c(O)c(C=O)c2c(O)c1-c1c(C)cc2c(C(C)C)c(O)c(O)c(C=O)c2c1O [Gossypol]
- Z repl 1: -2.171
- Z Repl 2: -0.607
- av Z [2]: -1.389
- av puncta (average of raw data 1 and 2): 3285.13
- raw data 1 (puncta): 287.373
- raw data 2 (puncta): 6282.89

SMILES: COc1cc2c(cc1O)CC[n+]1cc3c4c(ccc3cc1-2)OCO4 [Groenlandicine]
- Z repl 1: 0.553
- Z Repl 2: -0.208
- av Z [4]: 0.172
- av puncta (average of raw data 1 and 2): 21762.9
- raw data 1 (puncta): 32984.4
- raw data 2 (puncta): 10541.3

SMILES: C[C@@H]1O[C@@H](Oc2c(-c3ccc(O)cc3)oc3cc(O[C@@H]4O[C@@H](C)[C@H](O)[C@@H](O)[C@H]4O[C@@H]4O[C@H](CO)[C@@H](O)[C@H](O)[C@H]4O)cc(O)c3c2=O)[C@H](O)[C@H](O)[C@H]1O [Grosvenorine]
- Z repl 1: 0.758
- Z Repl 2: 0.703
- av Z [5]: 0.73
- av puncta (average of raw data 1 and 2): 27858.6
- raw data 1 (puncta): 35445.3
- raw data 2 (puncta): 20271.9
